Reference: US6593335B1, “Potassium channel openers” (Abbott Laboratories, priority 1997, dated 2003)

Target: potassium channels (Sus scrofa, UniProt F1SR11)
Assay: Functional potassium channel opening activity in isolated Landrace pig bladder strips (field-stimulated twitch)
Conditions: for Landrace Pig Bladder Index: ED50 for P1075 divided by ED50 for the test agonist, averaged over tissues; for Landrace Pig Bladder pD2: negative logarithm of ED50; for Emax: pig
Description: The entire bladder was removed and ed into Krebs Ringer bicarbonate solution (composition, mM: NaCl,; dextrose, 1; KCl, 4.7; […] Propranolol (0.004 ed in all of the assays to block […]. The trigonal and dome […]. Strips 3-5 mm wide and 20 mm long were prepared from the cut in a circular fashion. The mucosal layer was removed. One end ationary glass rod and the other to a Grass FT03 transducer at a basal am. Two parallel platinum electrodes were included in the stationary ide field stimulation of 0.05Hz, 0.5 milli-seconds at 20 volts. […] Tissues were allowed to equilibrate for at least 60 minutes and primed with 80 mM KCl. A control concentration response curve (cumulative) was generated for each tissue using the potassium channel opener […] as the control agonist. […] After a 60 minute rinsing period, a concentration response curve (cumulative) was generated for the test agonist in the same fashion as that used for the control agonist […]. The maximal efficacy of each compound (expressed as % relative to […]) is reported. […] J. Physiol. 235, E97 (1980)), and agonist potencies were expressed as pD2 (the negative logarithm). Agonist potencies were also expressed as an index relative to […]. The index was calculated by dividing the ED50 for […] by the ED50 for the test agonist in a given tissue. Each tissue was used for only one test agonist, and the indices obtained from each tissue were averaged to provide an average index of potency.

[1] = maximal efficacy relative to P1075, field stimulation 0.05Hz, 0.5 milli-seconds at 20 volts

Structure (SMILES) | Landrace Pig Bladder Index | Landrace Pig Bladder pD2 | Emax [1] [%] | Landrace Pig Bladder Efficacy (% P1075) [1] [% P1075]
O=C1CCCC2=C1C(c1ccc(Br)c(Br)c1)C1=C(CCS1(=O)=O)N2 (single isomer, unassigned) [Example 147, 9-(3.4-dibromophenyl)-2,3,5,6,7,,9-hexahydrothieno[3.2-b]quinolin-8(4H)-one, 1,1-dioxide] | 0.24 | 6.2 | 99 | 
O=C1CCCC2=C1C(c1ccc(Cl)c([N+](=O)[O-])c1)C1=C(CCS1(=O)=O)N2 (single isomer, unassigned; (+)) [Example 99, (+)-9-(4-chloro-3-nitrophenyl)-2,3,5,6,7,9-hexahydrothieno[3.2-b]guinolin-8(4H)-one, 1,1-dioxide] | 0.18 | 6.2 | 100 | 
N#Cc1cccc(C2C3=C(CCCC3=O)NC3=C2S(=O)(=O)CC3)c1 (single isomer, unassigned; (-)) [Example 114, (−)-9-(3-cyanophenyl)-2,3,5,6,7,9-hexahydrothieno[3,2-b]quinolin-8(4H)-one, 1,1-dioxide] | 0.014 | 4.9 | 97 | 
O=C1CCC2=C1C(c1ccc(Cl)c(Cl)c1)C1=C(CCS1(=O)=O)N2 (single isomer, unassigned) [Example 146] | 0.40 | 6.7 | 100 | 
O=C1CCC2=C1C(c1ccc(F)c(Cl)c1)C1=C(CCS1(=O)=O)N2 (stereo not drawn) [Example 61, 8-(3-chloro-4-fluorophenyl)-2,3,4,5,6,8-hexahydro-7H-cyclopenta[b]thieno [2,3-e]pyridin-7-one, 1,1-dioxide] | 0.71 | 7.1 | 100 | 
O=C1CCC2=C1C(c1ccc(F)c(Br)c1)C1=C(CCCS1(=O)=O)N2 (stereo not drawn) [Example 40, 9-(3-bromo-4-fluorophenyl)-3,4,5,6,7,9-hexahydrocyclopenta[b]thiopyrano [2.3-e]pyridin-8(2H)-one, 1,1-dioxide] | 0.46 | 6.9 | 98 | 
O=C1CCCC2=C1C(c1ccc(F)c(C(F)(F)F)c1)C1=C(CCS1(=O)=O)N2 (single isomer, unassigned; (-)) [Example 139] | 0.13 | 6.0 | 100 | 

Second part, the molecule after the results:

Landrace Pig Bladder Index | Landrace Pig Bladder pD2 | Emax [1] [%] | Landrace Pig Bladder Efficacy (% P1075) [1] [% P1075] | Structure (SMILES)
0.078 | 6.2 | 100 |  | O=C1CCCC2=C1C(c1cc(Br)c(F)cc1O)C1=C(CCS1(=O)=O)N2 (stereo not drawn) [Example 121, 9-(5-bromo-4-fluoro-2-hydroxyphenyl)-2.35,6,7,9-hexahydrothieno[3.2-b]quinolin-8(4H)-one, 1,1-dioxide]
0.075 | 4.7 | 98 |  | O=C1CCCC2=C1C(c1cc(Br)ccc1O)C1=C(CCS1(=O)=O)N2 (stereo not drawn) [Example 108, 9-(5-bromo-2-hydroxyphenyl)-2,3,5,6,7,9-hexahydrothieno[3,2-b]quinolin-8(4H)-one 1,1-dioxide]
0.02 | 5.2 | 100 |  | O=C1CCCC2=C1C(c1ccc(F)c(Br)c1)C1=C(CCCS1(=O)=O)N2 (single isomer, unassigned; (+)) [Example 93, (+)-I 0-(3-bromo-4-fluorophenyl)-3,4,6,7,8,10-hexahydro-2H-thiopyrano[3 2-b]quinolin-9(5H)-one, 1,1-dioxide]
0.31 | 6.4 |  | 94 | O=C1CCCC2=C1C(c1ccc(F)c(Br)c1)C1=C(CCCS1(=O)=O)N2 (single isomer, unassigned; (-)) [Example 94, (−)-10-(3-bromo-4-fluorophenyl)-3,4,6,7,8,10-hexahydro-2H-thiopyrano[3,2-b]quinolin-9(5H)-one 1,1-dioxide]
